Test results: ChEMBL document CHEMBL1159356, “Cytotoxic styrylpyrones from Goniothalamus amuyon” (J Nat Prod, 2003)
Values after ≈ are worked out from the molar mass of the structure shown. Numbered stars: 1 amine (or outer) side, 2 acyl side, 3 side chain; on linkers, the order of the positions; unused ones are H or OH. Bridge positions count the residues as written; N and C are the ends. Square brackets hold non-standard residues; d marks the D form. Peptide text beside a SMILES is read from it. I, II: the chains in the order shown. Actinocin(1to9) = Cc1c2oc3c(C)ccc(C(=O)[*:2])c3nc-2c(C(=O)[*:1])c(N)c1=O; NMeV = CN[C@H](C(=O)O)C(C)C; Sar = CNCC(=O)O

Key:
[1] = system: NUGC; experiment: Cytotoxicity against human NUGC cells; format: functional, cell-based
[2] = Cytotoxicity against human HONE1 cells; format: functional, cell-based

Row | Structure (SMILES) | IC50 [1] | IC50 [2]
1 | O=C1C=CC[C@H]([C@@H](O)[C@H](Cl)c2ccccc2)O1 [6R,7R,8R-8-CHLOROGONIODIOL] | 31 µg/mL (≈ 123 µM) | 4.87 µg/mL (≈ 19.3 µM)
2 | O=C1C=CC[C@H]([C@@H]2O[C@H]2c2ccccc2)O1 [GONIOTHALAMIN EPOXIDE] | 32.1 µg/mL (≈ 148 µM) | 36.3 µg/mL (≈ 168 µM)
3 | CO[C@H](c1ccccc1)[C@H](O)[C@H]1CC=CC(=O)O1 [6R,7R,8R-8-METHOXYGONIODIOL] | 168 µg/mL (≈ 675 µM) | 240 µg/mL (≈ 965 µM)
4 | Cc1c2oc3c(C)ccc(C(=O)N[C@@H]4C(=O)N[C@H](C(C)C)C(=O)N5CCC[C@H]5C(=O)N(C)CC(=O)N(C)[C@@H](C(C)C)C(=O)O[C@@H]4C)c3nc-2c(C(=O)N[C@@H]2C(=O)N[C@H](C(C)C)C(=O)N3CCC[C@H]3C(=O)N(C)CC(=O)N(C)[C@@H](C(C)C)C(=O)O[C@@H]2C)c(N)c1=O [DACTINOMYCIN] (I: T[dV]P[Sar][NMeV] / II: T[dV]P[Sar][NMeV]; ester I:1-I:C, II:1-II:C; linker I:N-II:N via Actinocin(1to9)) | 6.61 µg/mL (≈ 5.27 µM) | 4.53 µg/mL (≈ 3.61 µM)
5 | CC(=O)O[C@H](c1ccccc1)[C@H](O)[C@H]1CC=CC(=O)O1 | 5.02 µg/mL (≈ 18.2 µM) | 6.09 µg/mL (≈ 22 µM)
6 | CC(=O)O[C@H]([C@H](O)c1ccccc1)[C@H]1CC=CC(=O)O1 | 4.12 µg/mL (≈ 14.9 µM) | 5.69 µg/mL (≈ 20.6 µM)
